From US9012431B2, “Boron-containing small molecules as anti-inflammatory agents” (Anacor Pharmaceuticals, Inc., priority 2008, dated 2015)

Legend:
[1] = system: IL-5; assay: Cytokine assay, IL-5 release from PBMC; format: cell-based; conditions: human PBMC, 20 ug/mL PHA, supernatant at 48 hours
Description: (§1) The ability of the compounds described herein to inhibit pro-inflammatory cytokines or phsophodiesterases were tested.
(§2) Frozen human peripheral blood mononucleocytes (PBMC) were thawed and centrifuged. Cryopreservation media was aspirated off of the cell pellet, and the cells were resuspended in fresh culture media (CM) comprising RPMI 1640 and 10% FBS in 96 well plates. Test article was dissolved in DMSO to form a 10 mM sample (DMSO, 100%). The 10 mM samples were diluted to 100 μM in CM (DMSO, 1%), then further diluted to 10, 1, 0.1, 0.01 μM in 200 μL of CM (n=3). […] IL-23 was assayed using a commercial ELISA kit (R&D Systems).

[2] = system: T1, PDE4 partially purified from human U-937 myeloid leukemia cells; assay: PDE4 Assay (enzyme from U-937 cells, [3H]cAMP); format: biochemical; conditions: PDE4 from U-937 cells, Tris buffer pH 7.5, 20 minutes at 25° C.
T1 construct: PDE4 partially purified from human U-937 myeloid leukemia cells was used
Description: Test article and/or vehicle was incubated with 0.2 mg enzyme and 1 mM cAMP containing 0.01 mM [3H]cAMP in Tris buffer pH 7.5 for 20 minutes at 25° C. The reaction was terminated by boiling for 2 minutes and the resulting AMP is converted to adenosine by addition of 10 mg/ml snake venom nucleotidase and further incubation at 37° C. for 10 minutes. Unhydrolyzed cAMP is bound to AG1-X2 resin, and remaining [3H]Adenosine in the aqueous phase is quantitated by scintillation counting.

[3] = system: IL-10; assay: Cytokine assay, IL-10 release from PBMC; format: cell-based; conditions: human PBMC, 20 ug/mL PHA, supernatant at 48 hours
Description: as §1, §2

[4] = system: TNF-α; assay: Cytokine assay, TNF-α release from PBMC; format: cell-based; conditions: Homo sapiens, PBMC, 24 h, 1 μg/mL LPS, supernatant at 24 hours
Description: as §1, §2

[5] = system: IFN-γ; assay: Cytokine assay, IFN-γ release from PBMC; format: cell-based; conditions: human PBMC, 20 ug/mL PHA, supernatant at 24 hours
Description: as §1, §2

[6] = system: IL-2; assay: Cytokine assay, IL-2 release from PBMC; format: cell-based; conditions: human PBMC, 20 ug/mL PHA, supernatant at 24 hours
Description: as §1, §2

Structure (SMILES) | IC50 [1] | IC50 [2] | IC50 [3] | IC50 [4] | IC50 [5] | IC50 [6]
CCOC(=O)c1ccc(Oc2ccc3c(c2)COB3O)c(C(F)(F)F)c1 [D54, 5-(4-Eethoxycarbonyl-2-trifluoromethylphenoxy)-1-hydroxy-2,1-benzoxaborole] | 1000 to 4000 nM | < 1000 nM | < 1000 nM | < 1000 nM | < 1000 nM | < 1000 nM
CC(C)Oc1nc(Oc2ccc3c(c2)COB3O)ccc1C#N [D128, 6-(1-Hydroxy-1,3-dihydro-benzo[c][1,2]oxaborol-5-yloxy)-2-isopropoxy-nicotinonitrile] | < 1000 nM | < 1000 nM | < 1000 nM | < 1000 nM | < 1000 nM | < 1000 nM
CC(C)(C)OC(=O)COc1cc(C#N)ccc1Oc1ccc2c(c1)COB2O [D30, 5-[4-Cyano-2-(tert-butoxycarbonylmethoxy)phenoxy], 3-dihydro-1-hydroxy-2,1-benzoxaborole] | < 1000 nM | < 1000 nM | < 1000 nM | < 1000 nM | < 1000 nM | < 1000 nM
CC(C)OC(=O)c1ccc(Oc2ccc3c(c2)COB3O)cc1 [D74, 4-(1-Hydroxy-1,3-dihydro-benzo[c][1,2]oxaborol-5-yloxy)-benzoic acid isopropyl ester] | 1000 to 4000 nM | < 1000 nM | 1000 to 4000 nM | 1000 to 4000 nM | < 1000 nM | < 1000 nM
CCOC(=O)c1ccc(Oc2ccc3c(c2)COB3O)c(F)c1 [D51, 5-(2-Fluoro-4-ethoxycarbonylphenoxy)-1-hydroxy-2,1-benzoxaborole] | 4000 to 10000 nM | < 1000 nM | 1000 to 4000 nM | 1000 to 4000 nM | 1000 to 4000 nM | 1000 to 4000 nM
CC(C)S(=O)(=O)c1ccc(Oc2ccc3c(c2)COB3O)cc1 [D104, 5-(4-(isopropylsulfonyl)phenoxy)benzo[c][1,2]oxaborol-1 (3H)-ol] | 4000 to 10000 nM | < 1000 nM | 4000 to 10000 nM | 1000 to 4000 nM | 1000 to 4000 nM | 1000 to 4000 nM
N#Cc1ccc(COc2ccc3c(c2)COB3O)cc1 [D1, 5-(4-Cyanobenzyloxy)-1,3-dihydro-1-hydroxy-2,1-benzoxaborole] | 1000 to 4000 nM | 1000 to 4000 nM | > 10000 nM | 4000 to 10000 nM | 1000 to 4000 nM | 1000 to 4000 nM
Cc1cc(Oc2ccc3c(c2)COB3O)ccc1C#N [D3, 5-(4-Cyano-3-methylphenoxy)-1,3-dihydro-1-hydroxy-2,1-benzoxaborole] | < 1000 nM | < 1000 nM | > 10000 nM | < 1000 nM | < 1000 nM | < 1000 nM
CCOC(=O)c1ccc(Oc2ccc3c(c2)COB3O)cc1 [D72, 4-(1-Hydroxy-1,3-dihydro-benzo[c][1,2]oxaborol-5-yloxy)-benzoic acid ethyl ester] | 4000 to 10000 nM | < 1000 nM | > 10000 nM | 1000 to 4000 nM | 1000 to 4000 nM | 1000 to 4000 nM
N#Cc1c(Cl)cccc1Oc1ccc2c(c1)COB2O [D13, 5-(3-Chloro-2-cyanophenoxy)-1,3-dihydro-1-hydroxy-2,1-benzoxaborole] | 1000 to 4000 nM | 1000 to 4000 nM | 1000 to 4000 nM | 4000 to 10000 nM | 1000 to 4000 nM | 1000 to 4000 nM
CC(=O)Oc1cc(Oc2ccc3c(c2)COB3O)ccc1C#N [D11, 5-(4-Cyano-3-acetoxyphenoxy)-1,3-dihydro-1-hydroxy-2,1-benzoxaborole] | 4000 to 10000 nM | < 1000 nM | 1000 to 4000 nM | < 1000 nM | 1000 to 4000 nM | 1000 to 4000 nM
N#Cc1ccc(Oc2ccc3c(c2)COB3O)nc1OCC(F)(F)F [D125, 6-(1-Hydroxy-1,3-dihydro-benzo[c][1,2]oxaborol-5-yloxy)-2-(2,2,2-trifluoro-ethoxy)-nicotinonitrile] | < 1000 nM | < 1000 nM | < 1000 nM | < 1000 nM | < 1000 nM | < 1000 nM
COc1nc(Oc2ccc3c(c2)COB3O)ccc1C(N)=O [D112, 6-(1-Hydroxy-1,3-dihydro-benzo[c][1,2]oxaborol-5-yloxy)-2-methoxy-nicotinamide] | 1000 to 4000 nM | < 1000 nM | < 1000 nM | < 1000 nM | < 1000 nM | < 1000 nM
CCOc1cc(Oc2ccc3c(c2)COB3O)ncc1C#N [D120, 4-Ethoxy-6-(1-hydroxy-1,3-dihydro-benzo[c][1,2]oxaborol-5-yloxy)-nicotinonitrile] | < 1000 nM | < 1000 nM | < 1000 nM | < 1000 nM | < 1000 nM | < 1000 nM
O=C(NCc1ccccc1)c1ccc(Oc2ccc3c(c2)COB3O)cc1 [D76, N-Benzyl-4-(1-hydroxy-1,3-dihydro-benzo[c][1,2]oxaborol-5-yloxy)-benzamide] | 4000 to 10000 nM | < 1000 nM | 1000 to 4000 nM | 1000 to 4000 nM | 1000 to 4000 nM | < 1000 nM
CS(=O)(=O)c1ccc(Oc2ccc3c(c2)COB3O)cc1 [D103, 5-(4-(methylsulfonyl)phenoxy)benzo[c][1,2]oxaborol-1 (3H)-ol] | < 1000 nM | 1000 to 4000 nM | 1000 to 4000 nM | 1000 to 4000 nM | < 1000 nM | < 1000 nM
N#Cc1ccc(Oc2ccc3c(c2)COB3O)c(CNC=O)c1 [D25, 5-[4-Cyano-2-(formylaminomethyl)phenoxy]-1,3-dihydro-1-hydroxy-2,1-benzoxaborole] | < 1000 nM | < 1000 nM | 1000 to 4000 nM | 4000 to 10000 nM | 1000 to 4000 nM | < 1000 nM
N#Cc1cnc(Oc2ccc3c(c2)COB3O)cc1OCCO [D119, 6-(1-Hydroxy-1,3-dihydro-benzo[c][1,2]oxaborol-5-yloxy)-4-(2-hydroxy-ethoxy)-nicotinonitrile] | < 1000 nM | < 1000 nM | < 1000 nM | < 1000 nM | < 1000 nM | < 1000 nM
O=C1NC(=O)c2cc(Oc3ccc4c(c3)COB4O)ccc21 [D9, 5-(1,3-Dihydro-1-hydroxy-2,1-benzoxaborol-5-yloxy)isoindoline-1,3-dione] | < 1000 nM | < 1000 nM | < 1000 nM | < 1000 nM | < 1000 nM | < 1000 nM
CCCOC(=O)c1ccc(Oc2ccc3c(c2)COB3O)nc1 [D66, n-Propyl 6-(1-hydroxy-1,3-dihydrobenzo[c][1,2]oxaborol-5-yloxy)nicotinate] | < 1000 nM | < 1000 nM | < 1000 nM | < 1000 nM | < 1000 nM | < 1000 nM
CN(CCO)c1nc(Oc2ccc3c(c2)COB3O)ccc1C#N [D115, 6-(1-Hydroxy-1,3-dihydro-benzo[c][1,2]oxaborol-5-yloxy)-2-[(2-hydroxy-ethyl)-methyl-amino]-nicotinonitrile] | < 1000 nM | < 1000 nM | 4000 to 10000 nM | < 1000 nM | < 1000 nM | < 1000 nM
CCCOc1nc(Oc2ccc3c(c2)COB3O)ccc1C#N [D131, 6-(1-Hydroxy-1,3-dihydro-benzo[c][1,2]oxaborol-5-yloxy)-2-propoxy-nicotinonitrile] | < 1000 nM | < 1000 nM | < 1000 nM | < 1000 nM | < 1000 nM | < 1000 nM
